# Experimental data from patent publication US7332482B2, “Method for treating benign prostatic hyperplasia” (BioXell S.p.A., priority 2003, dated 2008).
# Columns and labels:
# [1] = molecular target: T1, AR (Homo sapiens, UniProt P10275); assay: Luciferase assay in AR-transfected PC3 cells; format: cell-based; set-up: In PC3 cells expressing the full length AR coupled to a luciferase report gene; expressed in transfected cells; host or cells: PC3 (AR-deficient human prostate adenocarcinoma), stably transfected with p5HbhAR-A; settings: increasing concentrations, alone or with DHT 3 nM
# T1 sequence (P10275 1-920): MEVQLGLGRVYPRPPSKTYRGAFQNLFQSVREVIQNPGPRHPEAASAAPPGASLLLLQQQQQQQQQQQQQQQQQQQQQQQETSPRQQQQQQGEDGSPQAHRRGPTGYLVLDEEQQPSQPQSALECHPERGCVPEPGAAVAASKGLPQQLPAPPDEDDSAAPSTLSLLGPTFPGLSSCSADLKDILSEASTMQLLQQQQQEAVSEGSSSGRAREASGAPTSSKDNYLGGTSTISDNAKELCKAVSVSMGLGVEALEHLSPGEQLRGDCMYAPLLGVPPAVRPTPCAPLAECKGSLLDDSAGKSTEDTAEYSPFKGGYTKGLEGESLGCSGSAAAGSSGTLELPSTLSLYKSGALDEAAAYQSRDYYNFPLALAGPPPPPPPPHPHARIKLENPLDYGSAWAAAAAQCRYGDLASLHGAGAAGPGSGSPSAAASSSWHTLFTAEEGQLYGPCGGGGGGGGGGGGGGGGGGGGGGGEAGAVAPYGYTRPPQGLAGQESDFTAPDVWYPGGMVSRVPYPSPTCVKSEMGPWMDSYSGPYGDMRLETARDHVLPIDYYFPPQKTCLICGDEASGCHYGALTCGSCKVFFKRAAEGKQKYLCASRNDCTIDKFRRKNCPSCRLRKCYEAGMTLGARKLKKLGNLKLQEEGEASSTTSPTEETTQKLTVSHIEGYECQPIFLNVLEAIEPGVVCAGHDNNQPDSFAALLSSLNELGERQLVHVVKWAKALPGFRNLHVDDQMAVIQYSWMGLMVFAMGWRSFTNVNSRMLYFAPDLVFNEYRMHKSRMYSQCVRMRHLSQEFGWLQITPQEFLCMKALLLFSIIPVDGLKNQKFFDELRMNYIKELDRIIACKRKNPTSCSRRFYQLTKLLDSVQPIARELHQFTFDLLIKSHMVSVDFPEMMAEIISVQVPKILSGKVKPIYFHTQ
# Procedure: PC3 cells stably transfected with human AR were plated in 24-well plates at a density of 2×10^4 in Ham's F12 plus 10% FCS. […] Transfected cells incubated with ethanol only served as positive controls.
# The Luciferase assay was performed with a Berthold luminometer according to the manufacturer's instructions (Luciferase Assay System, Promega, Milan, Italy). The cells were lysed directly in the plate with 200 μl of lysis buffer. Luciferase activity was measured on 20 μl of cell lysate for 10 s after addition of 100 μl of luciferine. Total protein measurement was performed on 20 μl of cell lysate. At least three independent assays were done in duplicate.
# [2] = molecular target: T2, 5α reductase type 1 (Homo sapiens, UniProt P18405); assay: 5α reductase inhibition test in CHO 1827 cells; format: cell-based; settings: 10^−9 to 10^−5 M
# T2 construct: host or cells: CHO 1827
# T2 sequence (P18405 1-259): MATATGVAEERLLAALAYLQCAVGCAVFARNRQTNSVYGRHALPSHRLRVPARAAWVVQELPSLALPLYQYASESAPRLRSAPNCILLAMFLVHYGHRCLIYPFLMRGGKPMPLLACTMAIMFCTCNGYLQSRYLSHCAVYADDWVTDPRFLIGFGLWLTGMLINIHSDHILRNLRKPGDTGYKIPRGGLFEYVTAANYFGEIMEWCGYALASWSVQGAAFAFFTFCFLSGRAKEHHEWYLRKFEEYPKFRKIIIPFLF
# Procedure: CHO-1827 and CHO-1829 cells, transfected with 5α reductase type 1 (5αR-1) or type 2 (5αR-2), respectively (see Steers W. Urology (2001) 58 p 17-24), were maintained in Ham's F12 medium supplemented with 5% FCS.
# 5α reductase inhibition assay was performed using CHO 1827 cells, transfected with 5αR-1, or CHO 1829 cells, transfected with 5αR-2, as described (see Guarna A, et al. Journal of Medicinal Chemistry (2000) 43 3718-3735.). Compound A was added in a concentration range from 10^−9 to 10^−5 M, using finasteride as a control inhibitor in each experiment.
# [3] = tested on: bladder; assay: Bladder outlet obstruction (BOO) rat model, cystometry and bladder weight; format: in vivo; settings: BOO rats, 150 μg/Kg daily, 2 weeks
# Procedure: • Female Sprague-Dawley rats, weighing 200-250 g 1.2. Grouping • Group A: BOO rats, treated with Compound A over 2 weeks, beginning at day 1 after creation of the obstruction (n=12) • Group B: BOO rats, treated with vehicle over 2 weeks, beginning at day 1 after creation of the obstruction (n=12) • Group C: Sham operated rats, treated with Compound A over 2 weeks, beginning at day 1 after surgery (n=12) 1.3. Studies: • a) Cystometry (˜18 hours after last administration of the drug/vehicle, 12 hours after removal of the obstructing ligature) under conscious conditions. • b) Measurements of bladder weight • c) In vitro investigations 2. Methods 2.1. Bladder Outlet Obstruction (BOO):
# The bladder and urethrovesical junction were exposed through a lower abdominal midline incision. A 0.9 mm metal rod was placed alongside the proximal urethra and a 3-0 silk ligature was tied tightly around the urethra and the rod, which was consequently be removed. Sham surgery was be performed accordingly, without placing the ligature. After 13 days the ligature was be removed and a catheter was be inserted into the bladder dome and tunneled subcutaneously.
# The following morning after insertion of the catheter, the cystometric investigation was performed without any anesthesia or restraint in a metabolic cage. The amount of voided urine was measured by means of a fluid collector, connected to a force displacement transducer. The bladder was continuously filled with saline at room temperature. The catheter was also connected to a pressure transducer. After a stabilization period of 30-60 minutes, when reproducible voiding patterns are achieved, the following parameters were recorded over a period of 30 minutes: Basal bladder pressure, micturition pressure, threshold pressure, micturition interval and volume, and non-voiding contractions. The amount of residual urine was investigated manually 3 times, at the end of the cystometry. Bladder capacity was calculated based on the measured values.
# The validated bladder outlet obstruction rat model described above was used to test the ability of Compound A to control and treat bladder dysfunction. The objective was to evaluate whether a vitamin D3 analogue (1-alpha-fluoro-25-hydroxy-16,23e-diene-26,27-bishomo-20-epi-cholecalciferol—compound “A”) at the dose of 150 μg/Kg/daily) can prevent bladder hypertrophy and bladder dysfunction such as bladder overactivity.
# In this model a ligature was surgically placed around the outlet of the catheterized bladder, so that when the catheter was removed, the bladder experienced increased urethral resistance. The rats underwent continuous cystometry to evaluate bladder function. In addition the contractile properties of isolated bladder preparation in response to nerve stimulation and exogenous stimuli in vitro were investigated under electrical field stimulation (EFS).
# The following cystometric parameters were investigated (see FIGS. 12-16): • micturition pressure (the maximum bladder pressure during micturition), • bladder capacity (residual volume after voiding plus the volume of saline infused to induce the void) • micturition volume (volume of the expelled urine) • residual urine (bladder capacity minus micturition volume) and • frequency and amplitude of spontaneously occurring changes intravesical pressure (non-voiding contractions).
structure (smiles),measurement,setting,value
"C=C1/C(=C\C=C2/CCC[C@]3(C)C([C@@H](C)C/C=C/C(O)(CC)CC)=CC[C@@H]23)C[C@@H](O)C[C@@H]1F [Compound A, 1-alpha-fluoro-25-hydroxy-16,23E-diene-26,27-bishomo-20-epi-cholecalciferol]",effect on AR-mediated luciferase activity (agonist/antagonist),[1],neither stimulated nor inhibited
same,interference with 5α reductase type 1,[2],did not interfere with either isoenzyme up to the micromolar range
same,bladder weight,[3],slight decrease
same,micturition pressure,[3],significant differences versus vehicle
same,residual urine,[3],absent
same,spontaneous non-voiding contraction amplitude,[3],significant differences versus vehicle
same,spontaneous non-voiding contraction frequency,[3],significant differences versus vehicle
